From article PMC8486176 (Cancer Science, 2021) come the findings set out here.

Ends that are not written are not given here. * marks the point of attachment. RhodamineB = CCN(CC)c1ccc2c(-c3ccccc3C(=O)*)c3ccc(=[N+](CC)CC)cc-3oc2c1

This experiment relates to NUGC‐4 cells. In words: Immunofluorescence binding of RhoB‐labeled peptides to fixed NUGC‐4 cells. The format is cell-based, human. The note with it: ImageJ quantification, Figure 4C.

With “RhoB‐CG7C: CG7C peptide labeled with rhodamine B, negative control (RhodamineB-CGGGGGGGC; cysteine pairing not given here)”, the “mean fluorescence intensity (MFI)” value was “small positive MFI”.
